Experimental data reported in PubChem BioAssay (NCI).
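These data come from cells grown in 96-well plates and exposed to compound for 48 hours at five concentrations. GI50 = concentration required for 50% inhibition of growth. TGI is the concentration that stops growth completely.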

What was measured:
Experiment in all cases: DTP human tumour cell line panel, 48 h
M14 melanoma = system: M14 melanoma
HCC-2998 colon = system: HCC-2998 colon
SF-268 CNS = system: SF-268 CNS
IGROV1 ovarian = system: IGROV1 ovarian
HOP-62 NSCLC = system: HOP-62 NSCLC
K-562 leukemia = system: K-562 leukemia
SK-OV-3 ovarian = system: SK-OV-3 ovarian
MDA-MB-435 = system: MDA-MB-435
OVCAR-3 ovarian = system: OVCAR-3 ovarian
MDA-MB-231 breast = system: MDA-MB-231 breast

SMILES | TGI (M14 melanoma) | TGI (HCC-2998 colon) | TGI (SF-268 CNS) | TGI (IGROV1 ovarian) | TGI (HOP-62 NSCLC) | TGI (K-562 leukemia) | TGI (SK-OV-3 ovarian) | GI50 (M14 melanoma) | GI50 (HCC-2998 colon) | GI50 (SF-268 CNS) | GI50 (IGROV1 ovarian) | GI50 (MDA-MB-435) | TGI (MDA-MB-435) | GI50 (OVCAR-3 ovarian) | TGI (OVCAR-3 ovarian) | GI50 (HOP-62 NSCLC) | GI50 (K-562 leukemia) | GI50 (SK-OV-3 ovarian) | GI50 (MDA-MB-231 breast) | TGI (MDA-MB-231 breast)
COc1ccc2oc3c(OC)c(OC)c(OC)cc3c(=O)c2c1 | > 100 µM | > 100 µM | > 100 µM | > 100 µM | > 100 µM | > 100 µM | > 100 µM | – | – | – | – | – | – | – | – | – | – | – | – | –
CCOC(=O)/C(=C/c1cccc(Cl)c1)N(CC)CC | > 100 µM | > 100 µM | > 100 µM | > 100 µM | 77.8 µM | > 100 µM | > 100 µM | – | – | – | – | – | – | – | – | – | – | – | – | –
COc1ccc(-c2ccc(/C=N/n3c(COc4ccccc4Cl)nn(CN4CCOCC4)c3=S)o2)c([N+](=O)[O-])c1 | 55.8 µM | 56.8 µM | 63.4 µM | > 100 µM | 85.5 µM | 41 µM | > 100 µM | 22.3 µM | 24.1 µM | 24 µM | 59.5 µM | 17.1 µM | 42.3 µM | 16.7 µM | 52.4 µM | 30 µM | 18.2 µM | 25.7 µM | – | –
C1CCCCc2nc3c(nc2CCC1)c1nc2c(nc1c1nc4c(nc31)CCCCCCCC4)CCCCCCCC2 | > 100 µM | > 100 µM | > 100 µM | > 100 µM | > 100 µM | > 100 µM | > 100 µM | – | – | – | – | – | – | – | – | – | – | – | – | –
Cc1ccc(-c2nc(/C=N/Nc3cc(C)nc4ccc(Cl)cc34)c(C)o2)cc1 | 3.49 µM | 3.77 µM | – | 3.48 µM | 3.58 µM | – | 3.21 µM | 1.8 µM | 2.07 µM | – | 1.81 µM | 1.69 µM | 3.25 µM | 1.94 µM | 3.56 µM | 1.88 µM | – | 1.78 µM | 1.81 µM | 3.48 µM
CC1=C(SC#N)S(=O)(=O)N(c2ccccc2)C(C)=C1SC#N | – | > 100 µM | > 100 µM | > 100 µM | – | 66 µM | 89.9 µM | – | – | – | – | – | – | – | – | – | – | – | – | –
COc1cc(/C=C/c2ccc(O)c(OC)c2)cc(OC)c1 | 70.8 µM | > 100 µM | > 100 µM | > 100 µM | > 100 µM | > 100 µM | 76.9 µM | – | – | – | – | – | – | – | – | – | – | – | – | –
COc1ccccc1NC(=O)C1=C(C)NC(C)=C(C(=O)Nc2ccccc2OC)C1/C=C/c1ccccc1 | > 100 µM | > 100 µM | > 100 µM | > 100 µM | > 100 µM | > 100 µM | > 100 µM | – | – | – | – | – | – | – | > 100 µM | – | – | – | – | –
CCOC(=O)C(Cc1ccc(N(CCCl)CCCl)cc1)NC(=O)C(Cc1ccccc1)NC=O (centres undefined) | 0.31 µM | – | 0.299 µM | 0.222 µM | 0.388 µM | 0.365 µM | 0.634 µM | – | – | – | – | – | 0.338 µM | – | 0.29 µM | – | – | – | – | 0.344 µM
COC1CC(O)C(OC(=O)c2ccccc2)C(C)O1 (centres undefined) | > 100 µM | > 100 µM | > 100 µM | > 100 µM | > 100 µM | > 100 µM | – | – | – | – | – | – | – | – | > 100 µM | – | – | – | – | –
CCCCCC(=O)Nc1nc2nc[nH]c2c(=O)[nH]1 | > 100 µM | > 100 µM | > 100 µM | > 100 µM | > 100 µM | > 100 µM | > 100 µM | – | – | – | – | – | – | – | > 100 µM | – | – | – | – | –
Cc1ccc2nc(NC(=O)C(=O)C(C#N)c3ccc(Cl)cc3)sc2c1 (centres undefined) | > 50 µM | > 50 µM | > 50 µM | > 50 µM | > 50 µM | – | > 50 µM | – | – | – | – | – | – | – | > 50 µM | – | – | – | – | –
CC1OC(=O)C(O)=C1O (centres undefined) | > 100 µM | > 100 µM | > 100 µM | > 100 µM | > 100 µM | > 100 µM | > 100 µM | – | – | – | – | – | – | – | > 100 µM | – | – | – | – | –
c1ccc(OCCC[P+](c2ccccc2)(c2ccccc2)c2ccccc2)cc1 | 18.1 µM | – | 19.2 µM | 17.4 µM | 42.8 µM | 16.3 µM | 32.4 µM | 2.53 µM | – | 3.82 µM | 1.42 µM | 0.481 µM | 10.3 µM | 1.12 µM | 19.4 µM | 4.55 µM | 0.634 µM | 4.11 µM | 2.33 µM | 11.2 µM
CCCCCCCC1(c2ccc(N)cc2)CCC(=O)NC1=O (centres undefined) | > 100 µM | > 100 µM | > 100 µM | > 100 µM | > 100 µM | > 100 µM | > 100 µM | – | – | – | – | – | – | – | 81.1 µM | – | – | – | – | –
CCOC(=O)c1cc(-c2ccc(-c3cc(C(=O)OCC)c(C#N)c(N)c3C#N)cc2)c(C#N)c(N)c1C#N | > 100 µM | > 100 µM | > 100 µM | > 100 µM | > 100 µM | > 100 µM | > 100 µM | – | – | – | – | – | – | – | > 100 µM | – | – | – | – | –
CC(C)c1cccc(C(C)C)c1N1C(=O)C(=O)C(c2nc3ccccc3o2)C(=O)C1=O | > 100 µM | > 100 µM | > 100 µM | > 100 µM | > 100 µM | > 100 µM | > 100 µM | – | – | – | – | – | – | – | > 100 µM | – | – | – | – | –
O=C(Nc1ccccc1I(=O)=O)C1CCCCC1 | – | > 100 µM | > 100 µM | > 100 µM | – | > 100 µM | > 100 µM | – | > 100 µM | > 100 µM | > 100 µM | > 100 µM | > 100 µM | > 100 µM | > 100 µM | – | 56.8 µM | > 100 µM | > 100 µM | > 100 µM
CN1Cc2ccccc2/C=C\c2ccccc21 | > 100 µM | > 100 µM | > 100 µM | > 100 µM | > 100 µM | – | > 100 µM | – | – | – | – | – | > 100 µM | – | > 100 µM | – | – | – | – | > 100 µM
CCC(C)CC(C)CC(C)/C=C(\C)C1=C(C)CC(C)(O)O1 (centres undefined) | > 100 µM | > 100 µM | – | > 100 µM | – | > 100 µM | > 100 µM | – | – | – | – | – | – | – | – | – | – | – | – | –
NC1c2ccccc2Nc2ccccc21 | 15.4 µM | 18.1 µM | 13.9 µM | 21.7 µM | 26.7 µM | 14.5 µM | 23.6 µM | – | – | – | – | – | – | – | 28.9 µM | – | – | – | – | –
COC1=CC(C2c3cc4c(cc3[C@@H](Nc3ccc(F)cc3)C3COC(=O)[C@H]23)OCO4)=CC(=O)C1=O (some centres undefined) | 36.3 µM | 39.6 µM | 36.6 µM | 44 µM | 5.9 µM | > 49.2 µM | 23.1 µM | – | – | – | – | – | – | – | > 66.5 µM | – | – | – | – | –
COc1cccc2cc(N(C)c3nc(C)nc4c3CCC4)ccc12 | 14 µM | 14 µM | 15.6 µM | 23.9 µM | 13.1 µM | 31.5 µM | – | < 0.01 µM | < 0.01 µM | < 0.01 µM | < 0.01 µM | – | – | < 0.01 µM | < 0.01 µM | < 0.01 µM | < 0.01 µM | < 0.01 µM | < 0.01 µM | 14.7 µM
